ChEMBL document CHEMBL3046389, “Synthesis and biological evaluation of novel hydroquinone dimethyl ethers as potential anticancer and antimicrobial agents” (2013)
Converted amounts (≈) assume the structure as drawn.

What was measured:
Type in all cases: functional
HCC 2998 = experiment: Anticancer activity against Homo sapiens (human) HCC2998 cells after 48 hr by SRB assay; conditions: HCC 2998, 48 h
RPMI-8226 = experiment: Anticancer activity against Homo sapiens (human) RPMI8226 cells after 48 hr by SRB assay; conditions: RPMI-8226, 48 h
HOP-62 [1] = experiment: Growth inhibition of Homo sapiens (human) HOP62 cells at 10 uM after 48 hr by SRB assay; conditions: HOP-62, 48 h, read-out: GI
A549 = experiment: Anticancer activity against Homo sapiens (human) A549/ATCC cells after 48 hr by SRB assay; conditions: A549, 48 h
HCT-116 = experiment: Anticancer activity against Homo sapiens (human) HCT116 cells after 48 hr by SRB assay; conditions: HCT-116, 48 h
NCI/ADR-RES = experiment: Anticancer activity against Homo sapiens (human) NCI/ADR-RES cells after 48 hr by SRB assay
KM12 = experiment: Growth inhibition of Homo sapiens (human) KM12 cells at 10 uM after 48 hr by SRB assay; conditions: KM12, 48 h, read-out: GI
SF-295 = experiment: Growth inhibition of Homo sapiens (human) SF295 cells at 10 uM after 48 hr by SRB assay; conditions: SF-295, 48 h, read-out: GI
MDA-MB-468 = experiment: Growth inhibition of Homo sapiens (human) MDA-MB-468 cells at 10 uM after 48 hr by SRB assay; conditions: MDA-MB-468, 48 h, read-out: GI
NCI-H522 = experiment: Anticancer activity against Homo sapiens (human) NCI-H522 cells after 48 hr by SRB assay; conditions: NCI-H522, 48 h
M14 = experiment: Anticancer activity against Homo sapiens (human) M14 cells after 48 hr by SRB assay; conditions: M14, 48 h
NCI-H460 = experiment: Growth inhibition of Homo sapiens (human) NCI-H460 cells at 10 uM after 48 hr by SRB assay; conditions: NCI-H460, 48 h, read-out: GI
HCT-15 = experiment: Anticancer activity against Homo sapiens (human) HCT15 cells after 48 hr by SRB assay; conditions: HCT-15, 48 h
Pseudomonas aeruginosa = experiment: Antimicrobial activity against Pseudomonas aeruginosa ATCC 10145 after 48 hr by two-fold serial broth dilution method; conditions: ATCC 10145, 48 h
MOLT-4 [2] = experiment: Anticancer activity against Homo sapiens (human) MOLT4 cells after 48 hr by SRB assay; conditions: MOLT-4, 48 h
SK-OV-3 = experiment: Anticancer activity against Homo sapiens (human) SKOV3 cells after 48 hr by SRB assay; conditions: SK-OV-3, 48 h
HOP-62 [3] = experiment: Anticancer activity against Homo sapiens (human) HOP62 cells after 48 hr by SRB assay; conditions: HOP-62, 48 h
Hs-578T [4] = experiment: Anticancer activity against Homo sapiens (human) Hs 578T cells after 48 hr by SRB assay
UACC-62 = experiment: Anticancer activity against Homo sapiens (human) UACC62 cells after 48 hr by SRB assay; conditions: UACC-62, 48 h
MDA-MB-231 = experiment: Anticancer activity against Homo sapiens (human) MDA-MB-231/ATCC cells after 48 hr by SRB assay; conditions: MDA-MB-231, 48 h
OVCAR-8 = experiment: Anticancer activity against Homo sapiens (human) OVCAR8 cells after 48 hr by SRB assay; conditions: OVCAR-8, 48 h
RXF 393 = experiment: Anticancer activity against Homo sapiens (human) RXF393 cells after 48 hr by SRB assay; conditions: RXF 393, 48 h
Hs-578T [5] = experiment: Growth inhibition of Homo sapiens (human) Hs 578T cells at 10 uM after 48 hr by SRB assay; conditions: read-out: GI
BT-549 = experiment: Anticancer activity against Homo sapiens (human) BT549 cells after 48 hr by SRB assay; conditions: BT-549, 48 h
SNB-75 = experiment: Anticancer activity against Homo sapiens (human) SNB75 cells after 48 hr by SRB assay; conditions: SNB-75, 48 h
SW-620 = experiment: Anticancer activity against Homo sapiens (human) SW620 cells after 48 hr by SRB assay; conditions: SW-620, 48 h
T47D = experiment: Growth inhibition of Homo sapiens (human) T47D cells at 10 uM after 48 hr by SRB assay; conditions: read-out: GI
HT-29 = experiment: Growth inhibition of Homo sapiens (human) HT-29 cells at 10 uM after 48 hr by SRB assay; conditions: HT-29, 48 h, read-out: GI
U-251 = experiment: Growth inhibition of Homo sapiens (human) U251 cells at 10 uM after 48 hr by SRB assay; conditions: U-251, 48 h, read-out: GI
UACC-257 = experiment: Anticancer activity against Homo sapiens (human) UACC257 cells after 48 hr by SRB assay; conditions: UACC-257, 48 h
MOLT-4 [6] = experiment: Growth inhibition of Homo sapiens (human) MOLT4 cells at 10 uM after 48 hr by SRB assay; conditions: MOLT-4, 48 h, read-out: GI
K562 = experiment: Anticancer activity against Homo sapiens (human) K562 cells after 48 hr by SRB assay; conditions: K562, 48 h
[7] = read-out: LC50 (the source's name)

SMILES: COc1ccc(OC)c(/C=C/C(=O)N/N=C/c2ccccc2)c1
- GI50 (HCC 2998): 2.35 µM
- TGI (HCC 2998): 21 µM
- CC50 (HCC 2998; [7]): 94.5 µM
- GI50 (RPMI-8226): 2.99 µM
- TGI (RPMI-8226): 9.96 µM
- CC50 (RPMI-8226; [7]): > 100 µM
- inhibition of growth at 10 µM (HOP-62 [1]): 32.7%
- GI50 (A549): 4.29 µM
- TGI (A549): > 100 µM
- CC50 (A549; [7]): > 100 µM
- GI50 (HCT-116): 2.64 µM
- TGI (HCT-116): 10.2 µM
- CC50 (HCT-116; [7]): 67.2 µM
- GI50 (NCI/ADR-RES): 1.46 µM
- LC50 (NCI/ADR-RES): > 100 µM
- TGI (NCI/ADR-RES): 4.29 µM
- inhibition of growth at 10 µM (KM12): 69%
- inhibition of growth at 10 µM (SF-295): 51.5%
- inhibition of growth at 10 µM (MDA-MB-468): 71.9%
- GI50 (NCI-H522): 1.57 µM
- TGI (NCI-H522): 41.7 µM
- CC50 (NCI-H522; [7]): > 100 µM
- GI50 (M14): 2.16 µM
- LC50 (M14): > 100 µM
- TGI (M14): 6.77 µM
- inhibition of growth at 10 µM (NCI-H460): 86.5%
- GI50 (HCT-15): 3.62 µM
- TGI (HCT-15): > 100 µM
- CC50 (HCT-15; [7]): > 100 µM
- MBC (Pseudomonas aeruginosa): 100 mg/L (≈ 322 µM)
- MIC (Pseudomonas aeruginosa): 50 mg/L (≈ 161 µM)
- GI50 (MOLT-4 [2]): 4.45 µM
- TGI (MOLT-4 [2]): > 100 µM
- CC50 (MOLT-4 [2]; [7]): > 100 µM
- GI50 (SK-OV-3): 12 µM
- LC50 (SK-OV-3): > 100 µM
- TGI (SK-OV-3): > 100 µM
- GI50 (HOP-62 [3]): 4.95 µM
- TGI (HOP-62 [3]): > 100 µM
- CC50 (HOP-62 [3]; [7]): > 100 µM
- GI50 (Hs-578T [4]): 9.07 µM
- TGI (Hs-578T [4]): > 100 µM
- CC50 (Hs-578T [4]; [7]): > 100 µM
- GI50 (UACC-62): 3.55 µM
- LC50 (UACC-62): > 100 µM
- TGI (UACC-62): 75.8 µM
- GI50 (MDA-MB-231): 7.24 µM
- TGI (MDA-MB-231): > 100 µM
- CC50 (MDA-MB-231; [7]): > 100 µM
- GI50 (OVCAR-8): 5.44 µM
- LC50 (OVCAR-8): > 100 µM
- TGI (OVCAR-8): 94.6 µM
- GI50 (RXF 393): 3.9 µM
- LC50 (RXF 393): > 100 µM
- TGI (RXF 393): 26.6 µM
- inhibition of growth at 10 µM (Hs-578T [5]): 33.5%
- GI50 (BT-549): 4.05 µM
- TGI (BT-549): 90.4 µM
- CC50 (BT-549; [7]): > 100 µM
- GI50 (SNB-75): 4.39 µM
- TGI (SNB-75): 37.3 µM
- CC50 (SNB-75; [7]): > 100 µM
- GI50 (SW-620): 1.5 µM
- TGI (SW-620): 6.23 µM
- CC50 (SW-620; [7]): > 100 µM
- inhibition of growth at 10 µM (T47D): 60.3%
- inhibition of growth at 10 µM (HT-29): 79.3%
- inhibition of growth at 10 µM (U-251): 56.5%
- GI50 (UACC-257): 5.76 µM
- LC50 (50% lethal concentration) (UACC-257): > 100 µM
- TGI (UACC-257): 33.6 µM
- inhibition of growth at 10 µM (MOLT-4 [6]): 63.5%
- GI50 (K562): 0.488 µM
- TGI (K562): > 100 µM
- CC50 (K562; [7]): > 100 µM
